Each structure is given as a SMILES string. Inconclusive results are not listed.

For the experiment, the system named is M. tuberculosis H37Rv growth inhibition, 7H9 media. Briefly: M. tuberculosis growth inhibition, HTS (AID 449762).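 For all read-outs here: bacterial growth assessed after seven days of incubation.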 The settings on record: for IC90: measured here: IC90 growth inhibition.

Take `CC(C)C(=O)Nc1cccc(-c2nc3ccccc3c(=O)o2)c1`: the IC50 was 44.3 µM and the IC90 was greater than 100 µM.

Turning to `Clc1ccc2c(c1)CCc1cccnc1C2=C1CCNCC1`, the IC50 was 26.8 µM and the IC90 was 31.3 µM.

As for `CC1(c2ccc(Cl)c(Cl)c2)NC(=S)N2C1NC(=S)N2c1ccccc1` (stereo not drawn), the IC90 was greater than 100 µM.

As to `Cc1cc2c(ccc3c2no[n+]3[O-])nn1`, the IC50 was 11.6 µM and the 90% effect concentration (IC90) stood at 14.6 µM.

Turning to `Cc1nonc1NC(=O)CSc1ccc(-c2ccccc2)nn1`, the IC50 was 21.1 µM and the IC90 came to 52.9 µM.

With `CCc1cccc2c(C(=O)CCl)c[nH]c12`, the IC50 is 0.78 µM and the concentration for an effect of 90% (IC90) was 3.18 µM.

For the compound `CCOC(=O)c1nnc(-c2ccccc2)nc1Sc1ccccc1Cl`, the IC50 is 20.7 µM and the IC90 came to 49.2 µM.

With `Cc1cc(NC2CCCCC2)nc(-c2ccccc2O)n1`, the IC50 was 39.2 µM and the IC90 amounted to 51.3 µM.

For the compound `O=C(c1ccc(Cl)cc1)N1N=C(c2ccccn2)CC1(O)C(F)(F)F` (stereo not drawn), the IC50 is 2.21 µM and the IC90 was greater than 100 µM.

The compound `COc1ccc(N=N/C(=C\O)C(=O)c2cccs2)cc1` displayed an IC90 greater than 100 µM.

With `CC(=O)c1cccc(NC(=O)C2C3C=CC(C3=C(c3ccccc3)c3ccccc3)C2C(=O)O)c1` (stereo not drawn), the IC90 is greater than 100 µM.

`C/C(=C\C(=S)Nc1ccccc1)Nc1ccc2ccccc2c1`: the IC50 is 40.6 µM and the IC90 stood at 52.9 µM.

For the compound `Cc1ccc(C2C3=C(CC(C)(C)CC3=O)N=C3c4ccccc4C(=O)C32)cc1` (stereo not drawn), the IC50 is 66.4 µM and the IC90 is 90.7 µM.

Take `O=C(Nc1cccc(Cl)c1)N1CCN(C/C=C/c2ccccc2)CC1`: the IC50 was 37.5 µM and the IC90 was found to be 52.7 µM.

`CN1/C(=C/C(=O)c2nc(S(C)(=O)=O)ncc2Cl)C(C)(C)c2ccccc21`: the IC50 was 3.21 µM and the IC90 stood at 10.7 µM.

As for `CCOC(=O)c1ccc(-n2c(CCC(=O)O)ccc2-c2cccs2)cc1`, the IC50 was 9.13 µM and the IC90 amounted to 14 µM.

In the case of `CCOc1ccc(N=CC2=C(O)CC(c3ccco3)CC2=O)cc1` (stereo not drawn), the IC50 was 80.4 µM and the IC90 was greater than 100 µM.

In the case of `COc1ccc(OC)c(CN2CCN(C(=O)CNC(=O)c3ccc(C(C)(C)C)cc3)CC2)c1`, the IC50 was 47.4 µM and the IC90 was 67.8 µM.

Consider `Cc1nn(-c2ccccc2)c(N2CCCC2)c1/C=N/Nc1ccc(S(N)(=O)=O)cc1[N+](=O)[O-]`, for which the IC90 is greater than 100 µM.

As to `CN(C)CCNc1ncnc2c1sc1nc(-c3ccccc3)c3c(c12)CCCC3`, the IC50 was 17.7 µM and the IC90 came to 20.7 µM.

Consider `Nc1c2c(nc3sc4c(c13)CCCCC4)CCCC2`, for which the IC50 is 4.56 µM and the IC90 is 13.8 µM.

For `Cc1ccc(C(=O)O/N=C(\N)c2ccc(Br)cc2)cc1C`, the IC50 was 98.9 µM and the IC90 is greater than 100 µM.

Take `O=C1/C(=C\c2ccncc2)CCc2ccccc21`: the IC50 was 20.8 µM and the IC90 turned out to be 34.8 µM.

As for `Cc1oc(C(=O)Nc2ccc(O)cc2)cc1COc1ccccc1`, the IC50 is 12.5 µM and the IC90 amounted to 43.6 µM.

On to `O=C(N/N=C/c1cccc2cccnc12)[C@H]1C[C@@H]1c1ccccc1`, for which the IC50 is 18.6 µM and the IC90 is 34.7 µM.

For the compound `N#C/C=C\Oc1ccc(Cl)cc1N`, the IC50 is 14 µM and the IC90 worked out at 23.3 µM.

Take `O=[N+]([O-])c1cc(-c2ccc(/C=N\n3cnnc3)o2)cc([N+](=O)[O-])c1`: the IC50 is 0.65 µM and the concentration for an effect of 90% (IC90) came out at 1.86 µM.

`O=C(/C=C/c1ccc([N+](=O)[O-])cc1)NC1CC2CCC1C2` (stereo not drawn): the IC50 is 44.6 µM and the concentration for an effect of 90% (IC90) amounted to 84.1 µM.

With `Cc1ccc(-c2csc3ncnc(Nc4ccc(N5CCOCC5)cc4)c23)cc1`, the IC50 is 18.4 µM and the IC90 was determined as 50.1 µM.

In the case of `Cc1ccc(N2C(=O)C(F)(F)C2c2ccccc2)cc1` (stereo not drawn), the IC50 was 2.79 µM and the IC90 amounted to 5.46 µM.

For the compound `O=c1c(Cl)c2oc3ccccc3nc-2c2ccccc12`, the IC50 is 9.38 µM and the IC90 amounted to 11.9 µM.

In the case of `O=[N+]([O-])c1ccc(COc2ccc(-c3[nH]ncc3-c3ccc(Cl)cc3)c(O)c2)cc1`, the IC50 was 67.1 µM and the IC90 is greater than 100 µM.

`Cc1ccc(-c2cc(-c3ccccc3C)[nH]n2)c(O)c1`: the IC50 was 22.2 µM and the IC90 is greater than 100 µM.

Turning to `COc1ccc(CNc2ncnc3c2[nH]c2cc(OC)c(OC)cc23)cc1`, the IC50 was 5.2 µM and the IC90 was 14.9 µM.

As for `CN(C)CCOc1ccc(-c2c(-c3ccsc3)sc3ccccc23)cc1`, the IC50 is 13.2 µM and the IC90 was 15.5 µM.

For `Cc1ccc(C)c(-c2nnc(NC(=O)C3=COCCO3)o2)c1`, the IC50 is 5.33 µM and the IC90 was 12.2 µM.

In the case of `CN1CCN2c3ccccc3Cc3ccccc3C2C1` (stereo not drawn), the IC50 is 42.8 µM and the concentration for an effect of 90% (IC90) is greater than 100 µM.

As for `CCOC(=O)COc1cc([N+](=O)[O-])cc2cccnc12`, the IC50 was 15.2 µM and the IC90 was found to be 34.6 µM.

With `N=c1n(Cc2ccc(Cl)cc2)c2ccccc2n1CC(O)COc1ccccc1` (stereo not drawn), the IC50 was 17.5 µM and the IC90 stood at 25.5 µM.

Consider `CC(=O)N1CCN(c2ccc(OC[C@H]3CO[C@](Cn4ccnc4)(c4ccc(Cl)cc4Cl)O3)cc2)CC1`, for which the IC50 was 17.5 µM and the concentration for an effect of 90% (IC90) was 25.2 µM.

As to `CCC(=O)c1ccc(OCC(O)CN2CCN(c3cccc(C(F)(F)F)c3)CC2)cc1` (stereo not drawn), the IC50 is 19.9 µM and the IC90 is 28 µM.

`Clc1cccc(-c2cc3nc4c(c(NCc5ccco5)n3n2)CCCC4)c1`: the IC50 is 11 µM and the IC90 was 17.4 µM.

As to `c1cc(Nc2cccc3nccnc23)c2nccnc2c1`, the IC50 is 9.75 µM and the IC90 amounted to 23.2 µM.

Regarding `CCCCCCc1cc2cc(C(=O)NCc3ccccc3)c(=N)oc2cc1O`, the IC50 was 3.45 µM and the IC90 was found to be 5.73 µM.

Regarding `O=C(c1ccco1)N1CCN(C(=O)C2CC(c3ccc(Cl)c(Cl)c3)=NO2)CC1` (stereo not drawn), the IC50 is 3.88 µM and the IC90 amounted to 11 µM.

In turn, `O=Cc1ccc(-c2ccc(Cl)cc2Cl)[nH]1` registered an IC90 greater than 100 µM.

Turning to `O=C(CCCCCNc1nc(=S)[nH]c2ccccc12)N1CCN(c2ccccn2)CC1`, the IC50 is 40.9 µM and the IC90 is greater than 100 µM.

For `CCOc1ccc(NC(=O)CSc2nc(O)c(C)c(=O)n2-c2ccc(F)cc2)cc1`, the half-inhibitory concentration (IC50) is 8.48 µM and the IC90 is 20.3 µM.

`CCOC(=O)COc1ccc(C2CC(C)=NN2c2ccccc2)cc1` (stereo not drawn): the IC50 was 2.81 µM and the IC90 was found to be 17.7 µM.

`COC(=O)c1ccc(Cn2cc(C(F)(F)F)cc([N+](=O)[O-])c2=O)cc1`: the IC50 is less than 0.2 µM and the IC90 was 23.7 µM.

For the compound `Cc1cc2oc3ccc(NCCCn4ccnc4)cc3c(=O)c2cc1C`, the IC50 is 18.2 µM and the IC90 is 27.5 µM.

On to `CCc1ccc2c(c1)C1(C(=O)N2)N2CCCC2C(C(=O)c2ccc3ccccc3c2)C12C(=O)Nc1ccccc12` (stereo not drawn), for which the IC50 was 13.1 µM and the IC90 is 30.9 µM.

Take `Cc1cc(Cl)ccc1OCCCC(=O)NO`: the IC50 was 17.6 µM and the IC90 was greater than 100 µM.

With `CSCCC(=O)N1CCCC(CNC(=O)c2ccc(-c3ccccc3)cc2)C1` (stereo not drawn), the IC50 was 39.1 µM and the IC90 amounted to 87.8 µM.

`Cc1cc(=O)oc2cc(Oc3ccc([N+](=O)[O-])cc3C(F)(F)F)ccc12`: the IC50 was 68.7 µM and the IC90 is greater than 100 µM.

As to `CC1CCN(c2nc(Cl)nc(Nc3ccc([N+](=O)[O-])cc3)n2)CC1`, the IC50 is 79.8 µM and the IC90 was greater than 100 µM.

With `Cc1nc2sccn2c1-c1nc(-c2cc3ccccc3o2)cs1`, the IC50 was 52.5 µM and the IC90 came to 90.7 µM.

Turning to `CN1CCN(CC(=O)N2CCn3c4c(c5cc(C6CCCCC6)ccc53)CCCC42)CC1` (stereo not drawn), the IC50 was 21.7 µM and the IC90 was 23.6 µM.

Turning to `CN(C)CCCN1c2ccccc2Sc2ccc(Cl)cc21`, the IC50 is 51.6 µM and the IC90 was found to be 59 µM.

Take `CCOC(=O)c1ccc(N=c2sc(C(=O)OC)cc(=O)n2CCCN2CCOCC2)cc1`: the IC50 is 4.52 µM and the IC90 was 12 µM.

Take `COC(=O)CCCCC1SCC(NC(=O)c2ccccc2)C1=O` (stereo not drawn): the IC50 is 8.79 µM and the IC90 is 15.4 µM.

Turning to `CC(=O)OC1=Cc2c(ccc3ccc(=O)oc23)OC1(C)C`, the IC50 was 14 µM and the IC90 turned out to be 31.6 µM.

As to `Cc1ccc(C(=O)N/C(=C/c2ccc(-c3cc(C(F)(F)F)ccc3Cl)o2)C(=O)NCc2cccnc2)cc1`, the IC50 was 37.8 µM and the IC90 was greater than 100 µM.

As for `CCOC(=O)C(/C=C(\C#N)C(=O)OCC)=C(/N)N1CCN(c2ccc(Cl)cc2)CC1`, the IC50 is 18.5 µM and the IC90 is greater than 100 µM.

Take `Cc1ccc(NC(=O)c2cnc(SCC(=O)NCC3CCCO3)n(C)c2=O)cc1C` (stereo not drawn): the IC50 was 9.73 µM and the IC90 was 35.1 µM.

Take `CCOC(=O)c1[nH]c(CN2CCN(c3ccc(OC)cc3)CC2)c(C(=O)OCC)c1C`: the IC50 was 23 µM and the IC90 was found to be 26 µM.

In the case of `CCCCCCCCCCC[N+](C)(C)CC/C=C1/c2ccccc2Sc2ccc(Cl)cc21`, the IC50 was 7.04 µM and the concentration for an effect of 90% (IC90) was 8.09 µM.

For the compound `CCOC(=O)c1cnc(Nc2nc3ccccc3o2)nc1CSC(=S)N(CC)CC`, the IC50 is 20.5 µM and the IC90 worked out at 25.4 µM.

For `CCOC(=O)C1=C(C)NC(SCC(=O)Nc2nc(C)cs2)=C(C#N)C1c1cccs1` (stereo not drawn), the half-maximal inhibitory concentration (IC50) was 34.4 µM and the IC90 was found to be 48.7 µM.

Turning to `O=C(Nc1cccc(-c2ccc(N3CCCCC3)nn2)c1)c1ccc(Br)o1`, the IC50 is 16.5 µM and the IC90 is 42.4 µM.

As for `c1ccc2c(c1)CCN(c1nc3cc4c(cc3s1)OCCO4)C2`, the IC50 is 7.45 µM and the IC90 came out at 16.9 µM.

Turning to `CCCCCCCNC(=O)c1ccc(N2CCC3(CC2)OCCO3)c([N+](=O)[O-])c1`, the IC50 is 37.9 µM and the IC90 worked out at 47.2 µM.

Turning to `Cn1cnc(Sc2ncnc3nc[nH]c23)c1[N+](=O)[O-]`, the IC50 is 9.85 µM and the IC90 came to 17 µM.

With `Brc1ccc(N/N=C(/N=Nc2nn[nH]n2)c2ccccc2)cc1`, the 50% inhibitory concentration (IC50) was 14.2 µM and the IC90 is 22.1 µM.

What is called IC50 is the concentration that gives 50% inhibition. The IC90 is the concentration at which the effect reaches the 90% level. A lower IC90 goes with greater potency.

The values above are taken from PubChem BioAssay AID449762 (Southern Research Specialized Biocontainment Screening …, 2010).
